The values that follow come from patent US5141960A, “Tricyclic glycinamide derivatives as anti-convulsants” (G. D. Searle & Co., priority 1991, dated 1992).

In data set [1] the test system is convulsions and death induced by 3-mercaptopropionic acid. Nature of the data set: 3-Mercaptopropionic acid (3-MPA) induced convulsions. The format is in vivo, male Swiss albino mice (CD1). The settings on record: for 3-MPA score: total number of mice protected for two groups of 5 animals, 30 min: 30 min before convulsions induced; for activity as inhibitors of tonic convulsions: overall, 3-MPA induced, oral, mice. The method, then:
(§1) Treatment of a mammal afflicted by or susceptible to certain CNS disorders is accomplished by administration of a therapeutically-effective amount of a compound of Formula I. In particular, compounds 1-3 of Table 1 were evaluated by in vitro and in vivo animal model assays to determine the pharmacological properties of such compounds and their suitability for use as therapeutic drugs in humans. These biological assays, as described below, consisted of prevention of induced convulsions in mice, a TCP binding study in rat brain, determination of acute toxicity in mice and an animal behavior assay. Except as otherwise specified, the animals used in the in vivo test were male Swiss albino mice of weight 22 to 33 g [CD1, Charles River, France], housed in groups of 10 on a 12-hour dark-light cycle for at least one week and fasted overnight prior to testing.
Compounds of Formula I were examined as inhibitors of convulsions and death induced by the convulsant agent 3-mercaptopropionic acid (3-MPA, 120 mg/kg subcutaneously) [W. van Dorsser, D. Barris, A. Cordi and J. Roba, Arch. Int. Pharmacodyn., 266, 239-249 (1983)]. The compounds of the invention were administered orally at a dosage of either 100 mg/kg or 30 mg/kg in a volume of 10 ml/kg each to 5 mice, at intervals of 30 minutes or 2 hours before convulsions were induced. The number of mice protected against tonic convulsions and the number of dead mice were noted. Results are given in Table II as a score which represents the total number of mice protected for two groups of 5 animals (3-MPA).

Details of data set [2]: species or system mice. The settings on record: mouse, in vivo. The method, then:
as §1
Behavioral effect of compounds of the invention on animals were determined by observations taken at 5 to 6 hours and at 24 hours after administration of compounds of the invention. Determinations were made based on a method derived from that of S. Irwin [See R. A. Turner, Screening Methods in Pharmacology, Chapter 3, pages 22-34, Academic Press, N.Y. (1965)]. If an anomaly were noted, the observation was extended and smaller doses were tested. […]

For data set [3], the target named is TCP (1-[1-(2-thienyl)cyclohexyl]piperidine) binding in rat brain synaptic membranes (SPM). Nature of the data set: TCP binding study. As to conditions: 2 nM tritiated TCP, pH 7.4, 25° C., 60 min. The method, then:
The effect of compounds of Formula I on TCP (1-[1-(2-thienyl)cyclohexyl]piperidine) binding was measured in rat brain synaptic membranes (SPM) prepared by known methods [J. B. Monahan & J. Michel; J. Neurochem., 48, 1699-1708 (1987)]. Prior to their use in the binding assay, frozen SPM were thawed, then diluted twenty fold with 50 mM Tris/acetate [pH 7.4, containing 0.04% (v/v) Triton X-100], incubated for 30 min. at 37° C. and centrifuged at 95,000 xg for 15 min. The Triton X-100 treated SPM were washed with 5 mM Tris/HCl (pH 7.4) and centrifuged a total of six times. Compound of the invention was incubated at differing concentrations with SPM (0.2-0.4 mg protein) and 2 nM tritiated TCP, in a total volume of 0.5 ml of 5 mM Tris/HCl buffer (pH 7.4) at 25° C. for 60 min. The samples were filtered through glass fiber filters (Schleicher & Schuell #32) which had been pretreated with 0.05% (v/v) polyethyleneimine, washed with 2 ml of ice-cold 5 mM Tris/HCl buffer, and then counted on a Beckman LS 5800 liquid scintillation counter with automatic corrections for quenching and counting efficiency. Inhibition of TCP binding was measured as a decrease in basal binding. […] TCP binding inhibition values (IC50) were calculated using logit-log analysis and calculations and regression analysis were performed using templates developed for Lotus 123 by known methods [L. M. Pullan, Computer Appli. […]

The nature of data set [4]: Acute toxicity (LD50, oral). More on the design: species or system male mice. As to conditions: mouse, in vivo, mice, mortality over 15 days. The method, then: as §1
The acute toxicity was determined after oral administration of the test compound to mice. […] Doses used in the test were determined by observing toxic effects on the mice, which doses varied from 3,000 mg/kg down to about 3 mg/kg. The mortality was recorded over a period of 15 days. The LD50 result in Table II was calculated according to published methods [Lichtfield and Wilcoxon, J. Pharmacol. Exp. Ther., 96, 99 (1949)] and is expressed in mg of test compound per kilogram of mouse body weight.

[5] abbreviates: compound orally at 100 mg/kg or 30 mg/kg, 3-MPA 120 mg/kg s.c.

With `NC(=O)CNC1c2ccccc2CSc2ccccc21` (stereo not shown) [Compound 3, 2-(2,3-6,7-dibenzo-4-thiacycloheptanylamino)acetamide], the “3-MPA score: total number of mice protected for two groups of 5 animals, 30 min” value (“3-MPA score: total number … 30 min” for short) in data set [1] (setting [5]) was found to be 10. Besides, in data set [1], the “activity as inhibitors of tonic convulsions” value is reported as “very good activity”.
Regarding `NC(=O)CNC1c2ccccc2C=Cc2ccccc21` [Compound 2, 2-(2,3-6,7-dibenzocyclohept-4-enylamino)acetamide], the “3-MPA score: total number … 30 min” value in data set [1] (setting [5]) is on record as 3. In addition, in data set [2], the “Behavior: convulsions (CON), dose at which the behavior is observed” value is 1000 mg/kg.
Turning to `NC(=O)CNC1c2ccccc2CCc2ccccc21` [Compound 1, 2-(2,3-6,7-dibenzocycloheptanylamino)acetamide], the “3-MPA score: total number … 30 min” value in data set [1] (setting [5]) worked out at 10. Further, in data set [1] (compound orally at 100 mg/kg or 30 mg/kg, 2 hours before convulsions induced, 3-MPA 120 mg/kg s.c.), the “3-MPA score: total number of mice protected for two groups of 5 animals, 2 hrs” value is recorded as 10. Besides, the “activity as inhibitors of tonic convulsions” value in data set [1] is given as “very good activity”. For the same compound, in data set [2], the “Behavior: sedation (SED), dose at which the behavior is observed” value came out at 300 mg/kg. This compound returned an IC50 in data set [3] of 38 µM. Further, the LD50 at 360 h in data set [4] worked out at 780 mg/kg.
